Measured values taken from patent US20150004144A1, “DIFFERENTIATION INTO BROWN ADIPOCYTES” (THE GENERAL HOSPITAL CORPORATION, priority 2011, published 2015).

Legend:
[1] = tested on: hPSC-derived adipocytes; test: Lipolysis assay (glycerol release); conditions: PPARG2-programmed, differentiated ADSVCs and MPCs; ADSVCs P=0.01, MPCs P=0.002; n=3
Method: Lipolysis assay. […] The culture media was collected for glycerol measurement using the Free Glycerol reagent (Sigma #F6428). Protein concentrations used to normalize glycerol content were measured using the Bradford protein assay (BioRad). Glycerol release was expressed in μg glycerol per mg total protein or the lowest value is set to 1.

[2] = tested on: hPSC-derived adipocytes; test: Cellular OCR and ECAR (extracellular flux analyzer); type: cell-based, human; conditions: all cell types; 5 μM antimycin A after oligomycin and CCCP
Method: To further distinguish between white and brown adipocytes at a functional level, the characterization was extended to the mitochondrial function of our cells. […] Compounds were then injected that modulate mitochondrial function sequentially and the effect on OCR and ECAR was measured after the addition of each compound. Oligomycin was first administered to determine ATP turnover and the degree of proton leak. […] After the addition of the electron transport chain decoupler carbonyl cyanide m-chlorophenylhydrazone (CCCP), the maximal respiratory capacity was measured. […] Finally, antimycin was administered to inhibit the flux of electrons through complex III and prevent oxygen consumption by the cytochrome c oxidase in the mitochondria.
Measurement of cellular OCR and ECAR. Cells were plated in gelatin-coated XF24-well cell culture microplates (Seahorse Bioscience) and differentiated into adipocytes. Cells were incubated in prewarmed unbuffered DMEM medium (DMEM containing 2 mM GlutaMax, 1 mM sodium pyruvate, 1.85 g/l NaCl, and 25 mM glucose) for 1 hour. The oxygen consumption was measured by the XF24 Extracellular Flux Analyzer (Seahorse Biosciences). […] OCR and ECAR were determined by plotting the oxygen tension and acidification of the medium in the chamber as a function of time and normalized by protein concentration (pmol/min/mg and mpH/min/mg), respectively.

[3] = tested on: BJ RiPS MPC derived adipocytes; test: Glucose uptake assay ([3H]-2-deoxy-D-glucose); type: cell-based, human; conditions: 100 nM insulin 30 min; P=0.05 unprogrammed, P=0.0007 PPARG2-programmed cells
Method: Glucose uptake assay. Adipocytes were serum-starved in 0.2% BSA DMEM overnight. Then, cells were incubated in KRH buffer (121 mM NaCl, 4.9 mM KCl, 1.2 mM MgSO4, 0.33 mM CaCl2, 12 mM HEPES, pH7.4) in the absence or presence of 100 nM insulin for 30 min at 37° C., followed by washing three times in KRH buffer. Glucose uptake was measured by incubating cells with 0.5 μCi/ml 2-deoxy-D-[3H] glucose (Perkin-Elmer) for 5 min at 37° C. After cold PBS washing three times, cells were lysed with 1% Triton X-100 solution and subjected to scintillation counting. Non-specific uptake was measured in the presence of 10 μM of cytochalasin B and subtracted from total uptake.

[4] = tested on: pAKT(S473); test: Western blot of insulin-induced AKT phosphorylation; type: cell-based, human; conditions: programmed white adipocytes, vs basal starved state
Method: Finally, it was determined whether the programmed white adipocytes respond to insulin in a manner similar to mature primary white adipocytes. […] Insulin response was examined by assessing protein expression levels of AKT and phosphorylated AKT [pAKT(S473)] (FIG. 4D).
Western blot analysis. Western blot analysis was carried out using following antibodies: total AKT (Cell signaling #9272), phospho-Ser 473 AKT (Cell signaling #9271), Lamin A/C (Fisher/Millipore #3211).

With `CC(C)NCC(O)c1ccc(O)c(O)c1` (stereo not shown) [isoproterenol] the “release of glycerol after isoproterenol” value [1] was “breakdown of triglycerides and release of glycerol”.

With antimycin the OCR after antimycin [2] was “dropped to post-oligomycin levels”.

In the case of insulin: insulin (Sigma), the “glucose uptake after exposure to insulin” value [3] is reported as “significant increase in the glucose uptake” and the “pAKT(S473) after insulin” value [4] is reported as “robustly upregulated pAKT(S473)”.
